Reference: patent US10617710B2, “Agent for sedating response to external stimulation in skin and method for sedating that response” (Shiseido Company, Ltd, priority 2014, dated 2020)

Test system: CD39 gene expression
Assay: CD39 expression promoting effect in human Langerhans cell-like cells (THP-1) under dexamethasone stress, RT-PCR
Type: cell-based
Conditions: THP-1 cells, 10 nM dexamethasone added, versus dexamethasone non-addition group
Method: THP-1 cells (American Type Culture Collection, VA, USA) were used as a substitute for human Langerhans cells. Approximately 200,000 THP-1 cells were cultured to confluence in RPMI1640 medium containing 10% FBS. Following culturing, stress hormone in the form of 10 nM dexamethasone was added followed by the respective addition of 0.1% polyoxyethylene (POE) 14/polyoxypropylene (POP) 7 random copolymer dimethyl ether (A), 0.01% of a 2% aqueous solution of sodium carboxymethyl-beta glucan (CM-Glucan, Mibelle Biochemistry) (B) and 0.1% rosewater (Bulgaria Rose Water, Toyotama International) (C). Moreover, a three-type mixture group (ABC) was added that incorporated one-third each of all three components. After culturing for 24 hours after addition, RNA was extracted using Isogen (Wako Pure Chemical Industries) followed by synthesis of cDNA using Superscript III and random primers (Invitrogen). RT-PCR was carried out with the Prism 7900HT (ABI) using SYBR Green (Invitrogen) and the primers indicated below.
During this RT-PCR, ribosomal protein S9 was used as normalization factor.

CD39 gene expression level (RT-PCR, normalized to ribosomal protein S9): expression of CD39 decreased
Compound: C[C@@H]1C[C@H]2[C@@H]3CCC4=CC(=O)C=C[C@]4(C)[C@@]3(F)[C@@H](O)C[C@]2(C)[C@@]1(O)C(=O)CO [dexamethasone]
